# Test results as given in patent US20080153896A1, “Polymorphic Forms of an HMG-CoA Reductase Inhibitor and Uses Thereof” (priority 2006, published 2008).
# Experiment: Stability (integrity) testing of amorphous and polymorphic form under storage conditions, RP-HPLC
# Assay type: physicochemical
# Parameters: key to Impurity RRT 0.738 / Impurity RRT 0.949 / Impurity RRT 1.050 / Impurity RRT 1.550 / Impurity RRT 0.136 / Impurity RRT 0.720 / Impurity RRT 0.706 / Impurity RRT 1.18 / Impurity RRT 1.826: % of total UV absorption (HPLC peak area); Impurity RRT 1.104 / Impurity RRT 1.698: unit not given beside the values
# Conditions: Batch 3 PP00205
# Description: The integrity of the different forms of the (3R, 5R)-7-[2-(4-fluorophenyl)-5-isopropyl-3-phenyl-4-[(4-hydroxymethylphenylamino)carbonyl]-pyrrol-1-yl]-3,5-dihydroxy-heptanoic acid, hemi calcium salt, was tested under different atmospheric conditions to determine the stability of the amorphous and polymorphic form of the drug in various storage environments. Reversed Phase-HPLC (RP-HPLC) was used to separate (3R, 5R)-7-[2-(4-fluorophenyl)-5-isopropyl-3-phenyl-4-[(4-hydroxymethylphenylamino)carbonyl]-pyrrol-1-yl]-3,5-dihydroxy-heptanoic acid, hemi calcium salt, from smaller molecules representing breakdown products as well as oxidized drug. The relative amount of the drug was reported as a percent of total absorption by UV. The total peak area of all UV absorption impurities was used to define total impurity of the drug. Impurities are defined by their relative retention time (RRT) compared to native drug. Samples were injected onto a C18 column using standard temperature, gradient and run-time conditions.
# The results of this integrity testing for the amorphous form of (3R, 5R)-7-[2-(4-fluorophenyl)-5-isopropyl-3-phenyl-4-[(4-hydroxymethylphenylamino)carbonyl]-pyrrol-1-yl]-3,5-dihydroxy-heptanoic acid, hemi calcium salt, is shown in Table 5.
# Three separate batches of polymorphic Form I of (3R, 5R)-7-[2-(4-fluorophenyl)-5-isopropyl-3-phenyl-4-[(4-hydroxymethylphenylamino)carbonyl]-pyrrol-1-yl]-3,5-dihydroxy-heptanoic acid, hemi calcium salt, were prepared and tested under the same atmospheric conditions described for the amorphous form.
smiles,measurement,setting,value
"CC(C)c1c(C(=O)Nc2ccc(CO)cc2)c(-c2ccccc2)c(-c2ccc(F)cc2)n1CC[C@@H](O)C[C@@H](O)CC(=O)[O-].CC(C)c1c(C(=O)Nc2ccc(CO)cc2)c(-c2ccccc2)c(-c2ccc(F)cc2)n1CC[C@@H](O)C[C@@H](O)CC(=O)[O-].[Ca+2] [Form I, (3R,5)-7-[2-(4-fluorophenyl)-5-isopropyl-3-phenyl-4-[(4-hydroxymethylphenylamino)carbonyl]-pyrrol-1-yl]-3,5-dihydroxy-heptanoic acid, hemi calcium salt]",Assay,5° C. 2M,98.21 % W/W
same,Description,5° C. 2M,White
same,Highest Impurity,5° C. 2M,0.402
same,Impurity RRT 0.935,5° C. 2M,0.402
same,Impurity RRT 1.045,5° C. 2M,0.340
same,Impurity RRT 1.095,5° C. 2M,0.155
same,Impurity RRT 1.44,5° C. 2M,0.203
same,Impurity RRT 1.590,5° C. 2M,0.096
same,Impurity RRT 1.640,5° C. 2M,0.064
same,Impurity RRT 1.698,5° C. 2M,0.067
same,Total Impurity,5° C. 2M,1.33
same,Water,5° C. 2M,4.02 % W/W
same,Assay,5° C. 3M,98.20 % W/W
same,Description,5° C. 3M,White
same,Highest Impurity,5° C. 3M,0.436
same,Impurity RRT 0.935,5° C. 3M,0.416
same,Impurity RRT 1.045,5° C. 3M,0.436
same,Impurity RRT 1.095,5° C. 3M,0.155
same,Impurity RRT 1.44,5° C. 3M,0.203
same,Impurity RRT 1.590,5° C. 3M,0.093
same,Impurity RRT 1.640,5° C. 3M,0.061
same,Impurity RRT 1.698,5° C. 3M,0.065
same,Total Impurity,5° C. 3M,1.43
same,Water,5° C. 3M,4.69 % W/W
same,Assay,5° C. 4M,98.22 % W/W
same,Description,5° C. 4M,White
same,Highest Impurity,5° C. 4M,0.381
same,Impurity RRT 0.138,5° C. 4M,0.219
same,Impurity RRT 0.935,5° C. 4M,0.381
same,Impurity RRT 1.045,5° C. 4M,0.324
same,Impurity RRT 1.095,5° C. 4M,0.128
same,Impurity RRT 1.449,5° C. 4M,0.220
same,Impurity RRT 1.596,5° C. 4M,0.077
same,Impurity RRT 1.640,5° C. 4M,0.081
same,Impurity RRT 1.698,5° C. 4M,0.057
same,Total Impurity,5° C. 4M,1.487
same,Water,5° C. 4M,5.08 % W/W
same,Assay,5° C. 5M,98.53 % W/W
same,Description,5° C. 5M,White
same,Highest Impurity,5° C. 5M,0.410
same,Impurity RRT 0.138,5° C. 5M,0.231
same,Impurity RRT 0.935,5° C. 5M,0.410
same,Impurity RRT 1.045,5° C. 5M,0.321
same,Impurity RRT 1.095,5° C. 5M,0.140
same,Impurity RRT 1.449,5° C. 5M,0.198
same,Impurity RRT 1.596,5° C. 5M,0.075
same,Impurity RRT 1.640,5° C. 5M,0.049
same,Impurity RRT 1.698,5° C. 5M,0.058
same,Total Impurity,5° C. 5M,1.482
same,Water,5° C. 5M,4.79 % W/W
same,Assay,5° C. 6M,98.15 % W/W
same,Description,5° C. 6M,White
same,Highest Impurity,5° C. 6M,0.368
same,Impurity RRT 0.138,5° C. 6M,0.256
same,Impurity RRT 0.935,5° C. 6M,0.368
same,Impurity RRT 1.045,5° C. 6M,0.315
same,Impurity RRT 1.095,5° C. 6M,0.165
same,Impurity RRT 1.449,5° C. 6M,0.211
same,Impurity RRT 1.596,5° C. 6M,0.081
same,Impurity RRT 1.640,5° C. 6M,0.049
same,Impurity RRT 1.698,5° C. 6M,0.050
same,Total Impurity,5° C. 6M,1.495
same,Water,5° C. 6M,4.78 % W/W
same,Assay,5° C. 9M,98.14 % W/W
same,Description,5° C. 9M,White
same,Highest Impurity,5° C. 9M,0.390
same,Impurity RRT 0.138,5° C. 9M,0.222
same,Impurity RRT 0.935,5° C. 9M,0.390
same,Impurity RRT 1.045,5° C. 9M,0.372
same,Impurity RRT 1.095,5° C. 9M,0.142
same,Impurity RRT 1.449,5° C. 9M,0.174
same,Impurity RRT 1.596,5° C. 9M,0.088
same,Impurity RRT 1.640,5° C. 9M,0.049
same,Impurity RRT 1.698,5° C. 9M,0.053
same,Total Impurity,5° C. 9M,1.490
same,Water,5° C. 9M,5.39 % W/W
same,Assay,5° C. 12M,98.31 % W/W
same,Description,5° C. 12M,White
same,Highest Impurity,5° C. 12M,0.438
same,Impurity RRT 0.935,5° C. 12M,0.438
same,Impurity RRT 1.045,5° C. 12M,0.383
same,Impurity RRT 1.095,5° C. 12M,0.177
same,Impurity RRT 1.449,5° C. 12M,0.217
same,Impurity RRT 1.596,5° C. 12M,0.090
same,Impurity RRT 1.640,5° C. 12M,0.066
same,Impurity RRT 1.698,5° C. 12M,0.066
same,Total Impurity,5° C. 12M,1.437
same,Water,5° C. 12M,5.97 % W/W
same,Assay,5° C./1M,98.26 % W/W
same,Description,5° C./1M,White
same,Highest Impurity,5° C./1M,0.421
same,Impurity RRT 0.706,5° C./1M,0.042
same,Impurity RRT 0.935,5° C./1M,0.421
same,Impurity RRT 1.045,5° C./1M,0.352
same,Impurity RRT 1.095,5° C./1M,0.165
same,Impurity RRT 1.44,5° C./1M,0.21
same,Impurity RRT 1.590,5° C./1M,0.100
same,Impurity RRT 1.640,5° C./1M,0.074
same,Impurity RRT 1.698,5° C./1M,0.071
same,Total Impurity,5° C./1M,1.455
same,Water,5° C./1M,4.77 % W/W
same,Assay,25° C./60% RH 3M,98.11 % W/W
same,Description,25° C./60% RH 3M,White
same,Highest Impurity,25° C./60% RH 3M,0.437
same,Impurity RRT 0.935,25° C./60% RH 3M,0.437
same,Impurity RRT 1.045,25° C./60% RH 3M,0.372
same,Impurity RRT 1.095,25° C./60% RH 3M,0.164
same,Impurity RRT 1.44,25° C./60% RH 3M,0.225
same,Impurity RRT 1.590,25° C./60% RH 3M,0.094
same,Impurity RRT 1.640,25° C./60% RH 3M,0.062
same,Impurity RRT 1.698,25° C./60% RH 3M,0.065
same,Total Impurity,25° C./60% RH 3M,1.42
same,Water,25° C./60% RH 3M,4.65 % W/W
same,Assay,25° C./60% RH 6M,98.10 % W/W
same,Description,25° C./60% RH 6M,White
same,Highest Impurity,25° C./60% RH 6M,0.476
same,Impurity RRT 0.935,25° C./60% RH 6M,0.476
same,Impurity RRT 1.045,25° C./60% RH 6M,0.324
same,Impurity RRT 1.095,25° C./60% RH 6M,0.191
same,Impurity RRT 1.449,25° C./60% RH 6M,0.196
same,Impurity RRT 1.596,25° C./60% RH 6M,0.071
same,Impurity RRT 1.640,25° C./60% RH 6M,0.061
same,Impurity RRT 1.698,25° C./60% RH 6M,0.061
same,Total Impurity,25° C./60% RH 6M,1.380
same,Water,25° C./60% RH 6M,4.96 % W/W
same,Assay,25° C./60% RH 9M,97.95 % W/W
same,Description,25° C./60% RH 9M,White
same,Highest Impurity,25° C./60% RH 9M,0.408
same,Impurity RRT 0.935,25° C./60% RH 9M,0.408
same,Impurity RRT 1.045,25° C./60% RH 9M,0.361
same,Impurity RRT 1.095,25° C./60% RH 9M,0.187
same,Impurity RRT 1.449,25° C./60% RH 9M,0.225
same,Impurity RRT 1.596,25° C./60% RH 9M,0.096
same,Impurity RRT 1.640,25° C./60% RH 9M,0.062
same,Impurity RRT 1.698,25° C./60% RH 9M,0.055
same,Impurity RRT 1.826,25° C./60% RH 9M,0.053
same,Total Impurity,25° C./60% RH 9M,1.477
same,Water,25° C./60% RH 9M,5.36 % W/W
same,Assay,25° C./60% RH 12M,98.10 % W/W
same,Description,25° C./60% RH 12M,White
same,Highest Impurity,25° C./60% RH 12M,0.399
same,Impurity RRT 0.138,25° C./60% RH 12M,0.204
same,Impurity RRT 0.935,25° C./60% RH 12M,0.399
